Data: US7777060B2, “Platinum analogs with bis-nitrile-containing ligands” (BioNumerik Pharmaceuticals, Inc., priority 2007, dated 2010)

Tests used:
Format in all cases: cell-based
[1] = tested on: A2780/WT; assay: Cytotoxicity IC50 in A2780/WT cell line, 1 hour drug exposure; settings: 1 hour of exposure to the drug; average of repeat experiments
Procedure: (§1) All experiments are with 1 hour of exposure to the drug, IC50 in μM. The platinum compounds have been tested by the resistance factor in CP3 cell line (CP3 Rfact) and C25 cell line (C25 Rfact). The terms (CP3 Rfact) and (C25 Rfact) are determined utilizing the following equations, wherein WT stands for wild-type. CP3 Rfact=IC50 in A2780/CP3÷IC50 in A2780/WT C25 Rfact=IC50 in A2780/C25÷IC50 in A2780/WT
(§2) In addition, Compounds with “ - - - ” in the IC50 column indicate the IC50s are >100 μM.

[2] = tested on: A2780/CP3; assay: Cytotoxicity IC50 in A2780/CP3 cell line, 1 hour drug exposure; settings: for IC50: 1 hour of exposure to the drug, average of repeat experiments, dash = IC50 >100 μM; for CP3 Rfact: resistance factor = IC50 in A2780/CP3 ÷ IC50 in A2780/WT
Procedure: as §1, §2

[3] = tested on: A2780/C25; assay: Cytotoxicity IC50 in A2780/C25 cell line, 1 hour drug exposure; settings: for IC50: 1 hour of exposure to the drug, average of repeat experiments; for C25 Rfact: resistance factor = IC50 in A2780/C25 ÷ IC50 in A2780/WT
Procedure: as §1, §2

Row | Molecule | IC50 [1] [µM] | IC50 [2] [µM] | CP3 Rfact [2] | IC50 [3] [µM] | C25 Rfact [3]
1 | N#CCc1ccc2c(c1)OCO2.N#CCc1ccc2c(c1)OCO2.[Cl][Pt@SP1][Cl] [BNP3016, Cis-bis(3,4-(methylenedioxy)phenylacetonitrile)dichloroplatinum (II)] | 62.4 | 75.6 | 1.21 | 66.5 | 1.07
2 | COC(CCC#N)c1ccccc1.COC(CCC#N)c1ccccc1.[Cl][Pt@SP1][Cl] (stereo not drawn) [BNP3017, Cis-bis(4-methoxy-4-phenylbutyronitrile)dichloroplatinum (II)] | 14 | 18.8 | 1.34 | 18.1 | 1.29
3 | N#CCCC1CCCCC1=O.N#CCCC1CCCCC1=O.[Cl][Pt@SP1][Cl] (stereo not drawn) [BNP3020, Cis-bis[3-(2-oxo-cyclohexyl)-propionitrile]dichloroplatinum (II)] | 51.6 | 84.3 | 1.63 | 61.6 | 1.19
4 | [Cl][Pt-2]([Cl])([N+]#CC1CCC1)[N+]#CC1CCC1 [BNP3021, Cis-bis-(cyclobutanecarbonitrile)dichloroplatinum (II)] | 13.9 | 41.3 | 2.97 | 29.2 | 2.10
5 | CCCCOCCC#N.CCCCOCCC#N.[Cl][Pt@SP1][Cl] [BNP3022, Cis-bis(3-butoxypropanenitrile)dichloroplatinum (II)] | 73.8 | > 100 | – | 65 | 0.88
6 | Cc1ccccc1CC#[N+][Pt-2]([Cl])([Cl])[N+]#CCc1ccccc1C [BNP3024, Cis-bis-(o-tolylacetonitrile)dichloroplatinum (II)] | 13.9 | 18.6 | 1.34 | 18.7 | 1.34
7 | Cc1cccc(CC#[N+][Pt-2]([Cl])([Cl])[N+]#CCc2cccc(C)c2)c1 [BNP3026, Cis-bis(m-tolylacetonitrile)dichloroplatinum (II)] | 21.6 | 28.5 | 1.32 | 24 | 1.11
8 | N#CCCCc1ccccc1.N#CCCCc1ccccc1.[Cl][Pt@SP1][Cl] [BNP3029/c, Cis-bis-(4-phenylbutyronitrile)dichloroplatinum (II)] | 4.4 | 6.88 | 1.56 | 5.45 | 1.24
9 | N#CCCCc1ccccc1.N#CCCCc1ccccc1.[Cl][Pt@SP1][Cl] [BNP3029/t, Trans-bis-(4-phenylbutyronitrile)dichloroplatinum (II)] | 16.2 | 19.2 | 1.19 | 17.7 | 1.09
10 | N#CC1Cc2ccccc21.N#CC1Cc2ccccc21.[Cl][Pt@SP1][Cl] (stereo not drawn) [BNP3030, Cis-bis(bicyclo[4.2.0]octa-1(6),2,4-triene-7-carbonitrile)dichloroplatinum (II)] | 51.4 | 61.9 | 1.20 | 58.9 | 1.15
11 | N#CCc1ccccc1C(F)(F)F.N#CCc1ccccc1C(F)(F)F.[Cl][Pt@SP1][Cl] [BNP3037/t, Trans-bis-[2-(trifluoromethyl)-phenylacetonitrile]dichloroplatinum] | 87.1 | > 100 | – | 68.7 | 0.79
12 | Cis-bis(cyclopropaneacetonitrile)dichloroplatinum (II) [BNP3014/c] | 23.3 | 55.7 | 2.39 | 45.4 | 1.94
13 | Cis-bis-[4-(trifluoromethoxy)-phenylacetonitrile]dichloroplatinum (II) [BNP3031] | 18.4 | 35.9 | 1.95 | 23.2 | 1.26
14 | Trans-bis(2,6-difluoro-3-methylphenylacetonitrile)dichloroplatinum (II) [BNP3036/t] | 23.7 | 54.1 | 2.28 | 35.2 | 1.49
15 | Trans-bis(cyclopropaneacetonitrile)dichloroplatinum (II) [BNP3014/t] | 68.1 | > 100 | – | 92 | 1.35
